Laboratory results as given in ChEMBL document CHEMBL4359930, “Discovery of novel Cyclophilin D inhibitors starting from three dimensional fragments with millimolar potencies” (Bioorg Med Chem Lett, 2019).

experiment: Binding affinity to recombinant human CypD K175I mutant (44 to 207 residues) expressed in Escherichia coli cells assessed as dissociation constant by SPR analysis

Point of comparison: `O=C(CN1C(=O)[C@@H]2[C@H]3CC[C@H](C3)[C@@H]2C1=O)NCc1ccc2c(c1)[C@H]1C[C@@H](N2)[C@H](O)CO1`, Kd 1.2 µM. Against it:
- Cc1onc(-c2ccncc2)c1C(=O)O — higher, > 10000 µM
- CCN1Cc2cc3c(cc2NCCC1=O)OCO3 — 6200-fold higher, 7500 µM
- O=C(NCc1ccc2c(c1)[C@@H]1C[C@H](N2)[C@H](O)CO1)C(=O)N1CCCC1 — 180-fold higher, 217 µM
- Nc1ccc(CCNC(=O)CN2C(=O)C3C4CCC(C4)C3C2=O)cc1 (stereo not given) — higher, > 200 µM
- CSc1ccccc1[C@H]1CCCN1C(=O)CN(C)C(=O)NCc1ccc2c(c1)[C@H]1C[C@@H](N2)[C@H](O)CO1 — 5.8-fold higher, 7 µM
- CSc1ccccc1[C@H]1CCCN1C(=O)C(=O)NCc1ccc2c(c1)[C@H]1C[C@@H](N2)[C@H](O)CO1 — 150-fold higher, 184 µM
- CSc1ccccc1[C@H]1CCCN1C(=O)CNC(=O)CCc1ccc2c(c1)[C@@H]1C[C@H](N2)[C@H](O)CO1 — 32-fold higher, 39 µM
- O=C(NCc1ccccn1)C(=O)NC1CCCC1 — 920-fold higher, 1100 µM
- CCN1Cc2cc(CNC(=O)NCC(=O)N3CCC[C@@H]3c3ccccc3SC)ccc2NCCC1=O — 6.7-fold lower, 0.18 µM
- CCn1nnc(NC(=O)c2ccccc2)n1 — 3200-fold higher, 3900 µM
- CCN1Cc2cc(NC(=O)CN3C(=O)C4C(C3=O)[C@H]3CC[C@@H]4C3)ccc2NCCC1=O (stereo not given in full) — higher, > 6000 µM
- O=C(CN1C(=O)[C@@H]2[C@@H]3CC[C@@H](C3)[C@@H]2C1=O)NCc1ccc2c(c1)[C@H]1C[C@@H](N2)[C@H](O)CO1 — 1.8-fold lower, 0.66 µM
- CCN1Cc2cc(CCC(=O)NCCC(=O)N3CCC[C@@H]3c3ccccc3SC)ccc2NCCC1=O — 350-fold higher, 420 µM
- CCN1Cc2cc(NC(=O)NCC(=O)N3CCC[C@@H]3c3ccccc3SC)ccc2NCCC1=O — 220-fold higher, 260 µM
- CCN1Cc2cc(CCC(=O)NCC(=O)N3CCC[C@@H]3c3ccccc3SC)ccc2NCCC1=O — 1.9-fold higher, 2.3 µM
- O[C@@H]1CO[C@@H]2C[C@H]1Nc1ccc(F)cc12 — 5900-fold higher, 7100 µM
- O=C(O)CN1C(=O)[C@@H]2[C@@H]3CC[C@@H](C3)[C@@H]2C1=O — higher, > 10000 µM
- CSc1ccccc1[C@@H]1CCCN1C(=O)C(=O)NCc1ccc2c(c1)[C@H]1C[C@@H](N2)[C@H](O)CO1 — higher, > 240 µM
- O=C(NCc1ccc2c(c1)[C@H]1C[C@@H](N2)[C@H](O)CO1)C(=O)N1CCCC1 — higher, > 1500 µM
